Patent US9181294B2, “Nucleoside analogues for the treatment of a viral infection, and method for evaluating the sensitivity to said treatment” (priority 2011, dated 2015)
Where two headings read alike, the source gives them in different places.

Tests used:
[1] = test system: HIV-1 pNL-4.3 clone (pNL4-3 wild type); experiment: Antiviral test in HeLa-P4 cells (single cycle, CPRG beta-galactosidase test); assay type: cell-based
Procedure: HeLa-P4 cells are HeLa CD4 LTR-LacZ cells in which the expression of LacZ is induced by the trans-activating Tat protein of HIV, making it possible to precisely quantify the HIV-1 infectivity from a single replication cycle. HeLa-CD4 cells growing exponentially at a density of 1×10^4/ml are placed in 96-well plates and infected on the following day with 3 ng of HIV p24 antigen in the presence of various concentrations of compounds.
(§1) The titres for a single cycle of the virus were determined in HeLa-P4 cells. The cells were infected, in duplicate, in 96-well plates, with the HIV-1 pNL-4.3 clone (equivalent to 3 ng of p24 antigen). The titres for a single cycle of the viruses were determined 48 hours after infection by quantifying the beta-galactosidase activity in P4 lysates by means of a colorimetric test (CPRG test) based on cleavage of chlorophenol red-beta-D-galactopyranoside (CPRG) by beta-galactosidase. The 50% inhibitory concentration (IC50) was determined as the concentration of compound A providing 50% inhibition of beta-galactosidase levels compared with the untreated infected cells.
The antiviral activity of compound A according to the invention was evaluated using an amount of HIV corresponding to 3 ng of p24 antigen.
(§2) Compound A according to the invention was tested on the pNL4-3 virus optionally modified by site-directed mutagenesis, comprising or not comprising (wt) the mutations located in the reverse transcriptase gene and associated with resistance to the main NRTIs used in clinical practice. Tables 1A to 1C below group together the resistance indices of compound A according to the invention on the viruses with and without mutation.
(§3) The resistance index of a mutant represents the ratio of the concentration of compound capable of inhibiting by half (IC50) the growth of the mutant virus tested, to the concentration of compound capable of inhibiting by half (IC50) the growth of the wild-type virus.

[2] = test system: pNL4-3 K103N; assay type: cell-based, HIV-1
Procedure: as §1, §2, §3
(§4) A resistance index greater than approximately 1.5 or 2 signifies that the viral strain is resistant to the treatment.

[3] = test system: pNL4-3 K65R-M184V; assay type: cell-based, HIV-1
Procedure: as §1, §2, §3, §4

[4] = test system: pNL4-3 K65R; assay type: cell-based, HIV-1
Procedure: as §1, §2, §3, §4

[5] = test system: pNL4-3 M184V-M41L-L210W-T215Y; assay type: cell-based, HIV-1
Procedure: as §1, §2, §3, §4

[6] = test system: pNL4-3 E138K; assay type: cell-based, HIV-1
Procedure: as §1, §2, §3, §4

[7] = test system: pNL4-3 M184V; assay type: cell-based, HIV-1
Procedure: as §1, §2, §3, §4

[8] = test system: pNL4-3 T215Y; assay type: cell-based, HIV-1
Procedure: as §1, §2, §3, §4

[9] = test system: pNL4-3 M41L-L210W-T215Y; assay type: cell-based, HIV-1
Procedure: as §1, §2, §3, §4

[10] = test system: pNL4-3 N155H; assay type: cell-based, HIV-1
[11] = test system: Lai virus in MT2 cells, intracellular viral DNA; experiment: Inhibition of double-stranded proviral DNA production (Taqman real-time PCR); assay type: cell-based, HIV-1; conditions: 10 or 25 μM of compound, FIG. 2
Procedure: (§5) The MT2 cells were concentrated at 15×10^6/ml and incubated for 2 h with 10 or 25 μM of compound A. The Lai virus is then added at a multiplicity of infection of 0.01 for 1 h. The cells are washed and then incubated in culture medium containing 10 or 25 μM of the compound to be tested. A sample of 1×10^6 cells is taken at various times and the viral DNA is quantified by means of a Taqman real-time PCR method. The viral RNA loads are quantified in the culture medium (Cobas AmpliPrep/Cobas TaqMan (CTM) HIV-1 v2 test).

[12] = in vitro; assay type: cell-based; conditions: read-out: CC50 (50% cytotoxic concentration)
Procedure: A cell viability test measuring the absorbance at 560 and 690 nm using the yellow tetrazolium […] [3-(4,5-dimethyl-2-thiazolyl)-2,5-diphenyltetrazolium bromide] reagent was carried out with the tetrabenzoyladenosine in the HeLa-CD4, Vero, FH, MT2 and SupT1 cell lines.
Using various cell types (HeLa-CD4, Vero, FH, MT2 and SupT1), the CC50 (50% cytotoxic concentration) of compound A was measured at more than 100 μM in all cases.

[13] = test system: LAI viruses in MT2 cells; experiment: Antiviral test in MT2 cells (viral load on day 3); assay type: cell-based, HIV-1; conditions: Human immunodeficiency virus 1; MT2 cells infected with LAI viruses
Procedure: The MT2 cells were concentrated at 3×10^6/ml and infected with 10^7 viruses (LAI). The cells were distributed into 96-well plates (1×10^5/well) and incubated in the presence of various concentrations of compound A (in quadruplicate). The viral loads were determined on day 3 (Cobas AmpliPrep/Cobas TaqMan (CTM) HIV-1 v2 test).
Compound A was tested on MT2 cells infected with LAI viruses.

[14] = test system: pNL4-3 G140S-Q184H; experiment: Resistance index on pNL4-3 virus modified by site-directed mutagenesis; assay type: cell-based, HIV-1; conditions: Table 1C; integrase-inhibitor-resistance mutant G140S-Q184H; ratio IC50 mutant / IC50 wild type
Procedure: as §1, §2
The resistance index of a mutant represents the ratio of the concentration of compound capable of inhibiting by half (IC50) the growth of the mutant virus tested, to the concentration of compound capable of inhibiting by half (IC50) the growth of the wild-type virus. […]

[15] = test system: pNL4-3 Q184H; experiment: as above; assay type: cell-based, HIV-1; conditions: Table 1C; integrase-inhibitor-resistance mutant Q184H; ratio IC50 mutant / IC50 wild type
[16] = test system: Lai virus in MT2 cells, extracellular viral RNA; experiment: Inhibition of viral RNA production in culture medium (Cobas TaqMan HIV-1 v2 test); assay type: cell-based
Procedure: as §5

[17] = amount of HIV corresponding to 3 ng of p24 antigen

## O=C(Nc1ncnc2c1ncn2[C@@H]1O[C@H](CO)[C@H](OC(=O)c2ccccc2)[C@@H]1OC(=O)c1ccccc1)c1ccccc1 [reference compound]
[1]; [17]
  Viral production (10 μM of compound): 109%

## O=C(O[C@@H]1[C@H](OC(=O)c2ccccc2)[C@H](n2cnc3c(N(C(=O)c4ccccc4)C(=O)c4ccccc4)ncnc32)O[C@@H]1CO)c1ccccc1 (stereo in doubt) [compound A, N^6,N^6,O^2′,O^3′-tetrabenzoyladenosine]
[2]
  Resistance index: 1
[3]
  Resistance index (fold change): 1.07 fold change
[4]
  Resistance index (fold change): 0.92 fold change
[5]
  Resistance index (fold change): 0.58 fold change
[6]
  Resistance index: 0.89
[7]
  Resistance index (fold change): 0.99 fold change
[8]
  Resistance index (fold change): 0.41 fold change
[9]
  Resistance index (fold change): 0.38 fold change
[10]
  Resistance index: 1.04
[1]; [17]
  Viral production (10 μM of compound): 0%
[1]; Human immunodeficiency virus 1, HeLaP4, amount of HIV corresponding to 3 ng of p24 antigen, FIG. 1
  IC50: 1 to 2 µM
[1]; {}
  Resistance index: 1
  Resistance index (fold change): 1 fold change
[11]
  appearance of the intracellular viral DNA: inhibited
[12]; African green monkey, Vero cells
  CC50: > 100 µM
[12]; FH cells
  CC50: > 100 µM
[12]; human, HeLa-CD4 cells
  CC50: > 100 µM
[12]; human, MT2 cells
  CC50: > 100 µM
[12]; human, SupT1 cells
  CC50: > 100 µM
[13]
  IC50: 1.6 µM
[14]
  Resistance index: 0.99
[15]
  Resistance index: 0.88
[16]; 10 or 25 μM of compound, FIG. 3
  production of the extracellular viral RNA: inhibited
[16]; FIGS. 2 and 3
  inhibition of the viral load, comparison with AZT (zidovudine): clear superiority
